Experimental findings from patent publication US7030143B2, “Heterocyclic compounds” (Nippon Shinyaku Co., Ltd., priority 2000, dated 2006) are described below.

The test has as its system KK-A^y mice. Description: Effects on carbohydrate and lipid metabolism in KK-A^y mouse. Type of test: in vivo. The settings on record: oral, 4 days; for Percent change of each parameter compared to control group (%): AI: Atherogenic Index = (TC − HDL-C)/HDL-C; for Percent change of each parameter compared to control group (%): BG: plasma glucose level; for Percent change of each parameter compared to control group (%): Ins: plasma insulin level; for Percent change of each parameter compared to control group (%): TG: plasma triglyceride level; for Percent change of each parameter compared to control group (%): HDL-C: serum HDL-C level; for Percent change of each parameter compared to control group (%): (V)LDL-C: sum of VLDL-C and LDL-C level in serum. On the procedure:
The experiment was conducted using the compounds described in the Examples as test compounds and Troglitazone (5-[4-(6-hydroxy-2,5,7,8-tetramethylchroman-2-ylmethoxy)benzyl]-2,4-thiazolidinedione) as a control compound.
Each test compound was orally administered to KK-A^y mice (10 week old, male), NIDDM model animal, for 4 days at a given dosage. On the next day of the last administration, blood was collected from tail end blood vessels under non-fasting conditions to prepare heparinized plasma. Thereafter, blood was collected from an abdominal large vein under pentobarbital anesthesia to prepare serum. The glucose level (BG), triglyceride level (TG) and insulin level (Ins) in plasma were measured using a glucose CII-test Wako (Wako Pure Chemical Industries, Ltd), CLINTECH TG-S (IATORON LABORATORIES, INC.) or triglyceride E-test WAKO (Wako Pure Chemical Industries, Ltd), and a rat insulin measurement kit (Morinaga Biochemistry Research Institute) or REBIS-insulin-mouse-T (Mouse Insulin ELISA (TMB) KIT, Shibayagi Co., Ltd), respectively. Also, the sum of VLDL-C level and LDL-C level in serum (hereinafter, referred to as “(V)LDL-C”), total cholesterol level (TC) and HDL-C level were measured using a high performance liquid chromatography system for the measurement of lipoprotein cholesterol (TOSOH CORPORATION). (V)LDL-C level was measured because VLDL-C and LDL-C cannot be measured separately. Atherogenic Index (AI) was calculated according to the following formula: AI=[(TC level)−(HDL-C level)]/(HDL-C level).

As to `Cc1oc(-c2ccccc2)nc1CCCCCCOC(C)(C)CO` [Example 55, 2-Methyl-2-[6-(5-methyl-2-phenyloxazol-4-yl)hexyloxy]-propanol], under “dose 10 mg/kg”, the “Percent change of each parameter compared to control group (%): AI” value (“Percent change of each parameter … (%): AI” below) is −72%, the “Percent change of each parameter compared to control group (%): BG” value (shortened to “Percent change of each parameter … (%): BG”) is on record as −22%, the “Percent change of each parameter compared to control group (%): Ins” value (“Percent change of each parameter … (%): Ins” for short) amounted to 2% and the “Percent change of each parameter compared to control group (%): TG” value (“Percent change of each parameter … (%): TG” for short) is on record as −45%. Further, where the note is “dose 10 mg/kg”, the “Percent change of each parameter compared to control group (%): HDL-C” value (“Percent change of each parameter … (%): HDL-C” below) was found to be 62% and the “Percent change of each parameter compared to control group (%): (V)LDL-C” value (from here on “Percent change of each parameter … (%): (V)LDL-C”) is on record as −44%.

For the molecule `Cc1ccc(-c2nc(CCCCC3COC(C)(C(=O)O)OC3)c(C)o2)cc1F` (stereo not drawn) [Example 64, 2-Methyl-c-5-{4-[5-methyl-2-(3-fluoro-4-methylphenyl)-oxazol-4-yl]butyl}-1,3-dioxane-r-2-carboxylic acid], under “dose 1 mg/kg”, the “Percent change of each parameter … (%): AI” value was −72%, the “Percent change of each parameter … (%): BG” value was −12%, the “Percent change of each parameter … (%): Ins” value was −20% and the “Percent change of each parameter … (%): TG” value is listed as −53%. For the same molecule, under “dose 1 mg/kg”, the “Percent change of each parameter … (%): HDL-C” value came out at 21% and the “Percent change of each parameter … (%): (V)LDL-C” value was −63%.

In the case of `Cc1ccc(-c2nc(CCCCC3COC(C)(C(=O)O)OC3)c(C)s2)cc1` (stereo not drawn) [Example 70, 2-Methyl-c-5-{4-[5-methyl-2-(p-tolyl)thiazol-4-yl]-butyl}-1,3-dioxane-r-2-carboxylic acid], under “dose 3 mg/kg”, the “Percent change of each parameter … (%): AI” value is listed as −53%, the “Percent change of each parameter … (%): BG” value is −15%, the “Percent change of each parameter … (%): Ins” value amounted to 5% and the “Percent change of each parameter … (%): TG” value is given as −37%. Under “dose 3 mg/kg”, the “Percent change of each parameter … (%): HDL-C” value was determined as 41% and the “Percent change of each parameter … (%): (V)LDL-C” value is reported as −33%.

On to `Cc1cccc(-c2nc(CCCCC3COC(C)(C(=O)O)OC3)c(C)o2)c1` (stereo not drawn) [Example 71, 2-Methyl-c-5-{4-[5-methyl-2-(m-tolyl)oxazol-4-yl]butyl}-1,3-dioxane-r-2-carboxylic acid], for which, for the setting “dose 3 mg/kg”, the “Percent change of each parameter … (%): AI” value was −90%, the “Percent change of each parameter … (%): BG” value was −51%, the “Percent change of each parameter … (%): Ins” value is listed as −61% and the “Percent change of each parameter … (%): TG” value was −89%. For the setting “dose 3 mg/kg”, the “Percent change of each parameter … (%): HDL-C” value came out at 1% and the “Percent change of each parameter … (%): (V)LDL-C” value is given as −90%.

Consider `Cc1ccc(-c2nc(CCCCC3COC(C)(C(=O)O)OC3)c(C)o2)cc1C` (stereo not drawn) [Example 73, 2-Methyl-c-5-{4-[5-methyl-2-(3,4-dimethylphenyl)-oxazol-4-yl]butyl}-1,3-dioxane-r-2-carboxylic acid], for which, where the note is “dose 3 mg/kg”, the “Percent change of each parameter … (%): AI” value is −85%, the “Percent change of each parameter … (%): BG” value is recorded as −53%, the “Percent change of each parameter … (%): Ins” value is listed as −68% and the “Percent change of each parameter … (%): TG” value is −92%. In addition, under “dose 3 mg/kg”, the “Percent change of each parameter … (%): HDL-C” value is reported as −8% and the “Percent change of each parameter … (%): (V)LDL-C” value is given as −90%.

For `COc1ccc(-c2nc(CCCCC3COC(C)(C(=O)O)OC3)c(C)o2)cc1` (stereo not drawn) [Example 74, 2-Methyl-c-5-{4-[5-methyl-2-(4-methoxyphenyl)oxazol-4-yl]butyl}-1,3-dioxane-r-2-carboxylic acid], where the note is “dose 3 mg/kg”, the “Percent change of each parameter … (%): AI” value was −72%, the “Percent change of each parameter … (%): BG” value is on record as −18%, the “Percent change of each parameter … (%): Ins” value is reported as −33% and the “Percent change of each parameter … (%): TG” value is recorded as −46%. For the same molecule, for the setting “dose 3 mg/kg”, the “Percent change of each parameter … (%): HDL-C” value was 55% and the “Percent change of each parameter … (%): (V)LDL-C” value is on record as −58%.
